Reference: article PMC10447463, “Data-mining unveils structure–property–activity correlation of viral infectivity enhancing self-assembling peptides” (Nature Communications, 2023)
Where “and” joins values, the source holds several entries; their conditions need not be identical. Equal values may be shown once. Read-outs that look alike come from different tables or passages of the source.

Legend:
[1] = test system: HIV-1 infection of TZM-bl cells; experiment: HIV-1 infectivity enhancement assay, β-galactosidase luminescence; assay type: cell-based; conditions: for Rel-to EFC / n-fold to virus: Fig S8 panels B, D; for Log10 Inf. rel. to EF-C: log10 of HIV-1 infection of TZM-bl cells relative to EF-C, Fig S15 source data, asymmetric std dev errors
[2] = β-sheet content by ATR-FT-IR; assay type: physicochemical
Method in brief: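 Measurements on freeze-dried PNF powders used a diamond ATR element, 64 scans each, with β-sheet fraction derived as previously reported. CR reflects loss of fluorescamine-reactive monomer after 3 kDa ultrafiltration, averaged over triplicates.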

[3] = Zeta-potential measurement; assay type: physicochemical; conditions: for Zeta-pot. / mV: zeta potential of peptide, Fig S15 source data
Method in brief: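 PBS pH 7.4, 1 mg/mL peptide (DMSO stock), 1 d RT aggregation; diluted in 1 mM KCl pre-read; mobility → zeta (Smoluchowski); n = 3, 2 expts averaged.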

[4] = Turbidity, derived count rate of scattered light; assay type: physicochemical; conditions: for Log Count Rate: log of derived count rate; for Count Rate: turbidity
Method in brief: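 One-day room-temperature aggregation at 1 mg/mL in PBS (pH 7.4) preceded measurement; samples then went into 1 mM KCl. Triplicates per sample, two independent experiments averaged.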

[5] = Feb2021, Log10 of infectivity relative to EF-C
[6] = Feb2021, figures match the 1.3 µM column
[7] = Feb2021, infectivity enhancement relative to EF-C
[8] = Feb2021, infectivity relative to virus only
[9] = Feb2021, n-fold infectivity relative to EF-C
[10] = Feb2021 run, infectivity n-fold relative to virus alone
[11] = Feb2021 run, log10 of infectivity relative to EF-C
[12] = Feb2021 run, n-fold infectivity relative to EF-C
[13] = infectivity enhancement relative to EF-C
[14] = infectivity n-fold relative to virus alone
[15] = infectivity class (low / medium / high) of each library peptide, main list in c1-c6, same classes repeated in sub-lists of sequences containing the hydrophobicity/charge patterns P+,H0,P+,H0,P0,H0,P0, P+,H0,P0,H0,P0,H0,P0, P+,H0,P0,H0
[16] = category derived from the zeta potential
[17] = Fig S8 panels A, C, asymmetric log errors
[18] = Fig S8 panels B, D, derived count rate of scattered light
[19] = category 1 or 0 derived from the count rate, key not given
[20] = derived count rate of scattered light
[21] = derived count rate of scattered light, mean, std deviation in next column
[22] = derived count rate of scattered light, mean, std deviation in separate column
[23] = Feb2021, n-fold enhancement relative to EF-C
[24] = category 1 or 0 from count rate, key not given
[25] = Feb2021, 1.3 µM value relative to virus only (0 µM)
[26] = Feb2021, unrounded values of the 1.3 µM column
[27] = infectivity class (low / medium / high) of the peptide in the sequence-pattern analysis, Fig. S22-A4, class limits not given

| Substance | Log10 of Rel to EFC (Feb2021) [1, 5] | Absolute Infectivity / RLU /s (Feb2021) [1, 6] [RLU /s] | Rel-to EFC (Feb-2021) [1, 7] | Rel-to EFC (Feb-2021) [1, 9] | n-fold to virus (Feb2021) [1, 10] | Log10 of Rel to EFC (Feb2021) [1, 11] | Rel-to EFC (Feb-2021) [1, 12] | infectivity [1, 15] | Log10 Inf. rel. to EF-C [1] | FTIR ß-sheet content/ % ([2]; ATR-FT-IR) | Zeta category ( +1 = if > 4 mV;-1 = if < -4 mV; 0 = -4mV to 4 mV) [3] | Zeta Pot. / mV ([3]; mean, Std Zeta in next column) [mV] | Zeta Pot. / mV ([3]; mean, Std in separate column) [mV] | Zeta-pot. / mV [3] [mV] | Zeta Count Rate / kcps [4, 21] [kcps] | Zeta Count Rate / kcps [4, 22] [kcps] | Rel-to EFC (Feb-2021) [1, 23] | FTIR ß-sheet content/ % [2] [%] | Zeta category ( +1 = if > 4 mV;-1 = if < -4 mV; 0 = -4mV to 4 mV) ([3]; category from zeta potential) | Zeta Count Rate Category [4, 24] | further results |
| --- | --- | --- | --- | --- | --- | --- | --- | --- | --- | --- | --- | --- | --- | --- | --- | --- | --- | --- | --- | --- | --- |
| CKFKQFFNM [CK14] | -0.3892 | 15720 | 0.4081 | 0.4081 | 17.15 | -0.3892 | 0.4081 | medium | -0.3892 | 0% | 1 (+1 = if > 4 mV) | 15.2 | 15.2 | 15.2 | 27264.3 | 27264.3 | – | – | – | – | n-fold to virus (Feb2021) [1, 8]: 17.15; Rel-to EFC [1, 13]: 0.4081; n-fold to virus [1, 14]: 17.15; Zeta Pot. / mV [3]: 15.2 mV; Zeta category ( +1 = if > 4 mV;-1 = if < -4 mV; 0 = -4mV to 4 mV) [3, 16]: 1 (+1 = if > 4 mV); Log Count Rate [4, 17]: 4.436; Log Count Rate ([4]; Fig S8 panels B, D): 4.436; Count Rate [4, 18]: 27264.3; Zeta Count Rate Category ([4]; category 1 / 0, no key given): 1; Zeta Count Rate Category [4, 19]: 1; Zeta Count Rate / kcps [4, 20]: 27264.3 kcps |
| CKFKQFFNMWQ [CK13] | -0.2148 | 23486.66667 | – | 0.6098 | 25.62 | -0.2148 | 0.6098 | medium | -0.2148 | 59% and 59.11% | 1 (+1 = if > 4 mV) | 8.563 | 8.563 | 8.563 | 8210 | 8210 | 0.6098 | 59.11 | 1 (+1 = if > 4 mV) | 1 | n-fold to virus (Feb2021) [1, 8]: 25.62; Zeta Pot. / mV [3]: 8.563 mV; Zeta Count Rate Category ([4]; category 1 / 0, no key given): 1; Zeta Count Rate / kcps [4, 20]: 8210 kcps |
| CKIKIQI [MG3b] | 0.008101 | – | 1.019 | 1.019 | 42.81 | 0.008101 | 1.019 | – | 0.0081 | 53% | 1 (+1 = if > 4 mV) | 12.8 | 12.8 | 12.8 | 2432.9 | 2432.9 | 1.019 | 53 | 1 (+1 = if > 4 mV) | 1 | n-fold to virus (Feb2021) [1, 25]: 42.81; Log10 of Rel to EFC (Feb2021) ([1]; Feb2021, log10 of infectivity relative to EF-C): 0.008101; Absolute Infectivity / RLU /s (Feb2021) [1, 26]: 19406.66667 RLU /s; Rel-to EFC [1, 13]: 1.019; n-fold to virus [1, 14]: 42.81; infectivity [1, 27]: high; Rel-to EFC (Feb-2021) ([1]; infectivity enhancement relative to EF-C (=1), Feb2021 run): 1.019; n-fold to virus (Feb2021) ([1]; infectivity n-fold relative to virus only, Feb2021 run): 42.81; Log10 of Rel to EFC (Feb2021) ([1]; log10 of infectivity relative to EF-C, Feb2021 run): 0.008101; Zeta category ( +1 = if > 4 mV;-1 = if < -4 mV; 0 = -4mV to 4 mV) ([3]; FigS26): 1 (+1 = if > 4 mV); Zeta category ( +1 = if > 4 mV;-1 = if < -4 mV; 0 = -4mV to 4 mV) [3, 16]: 1 (+1 = if > 4 mV); Log Count Rate [4, 17]: 3.386; Log Count Rate ([4]; Fig S8 panels B, D): 3.386; Count Rate [4, 18]: 2432.9; Zeta Count Rate Category ([4]; category 1/0, no key printed): 1; Zeta Count Rate Category [4, 19]: 1; Zeta Count Rate / kcps ([4]; derived count rate from zeta measurement, mean): 2432.9 kcps; Zeta Count Rate Category ([4]; key not given): 1 |
| CKIKIQINM [MG2] | 0.2012 | – | – | 1.589 | 66.78 | 0.2012 | 1.589 | high | 0.2012 | 43% and 42.84% | 1 (+1 = if > 4 mV) | 16.83 | 16.83 | 16.83 | 4228 | 4228 | 1.589 | 42.84 | 1 (+1 = if > 4 mV) | 1 | n-fold to virus (Feb2021) [1, 25]: 66.78; Absolute Infectivity / RLU /s (Feb2021) [1, 26]: 30273.33333 RLU /s; infectivity [1, 27]: high; Zeta Count Rate Category ([4]; category 1/0, no key printed): 1 |
